The test system of series [1] is rabbits. The following applies: pretreatment with amidase inhibitor; cited from earlier work.
Series [2] has as its system Male SD (Sprague-Dawley) rats. Description: Rat 21-day INH hepatotoxicity study: plasma AST/ALT, body and relative liver weight. The settings on record: i.p. once daily for 21 days, INH 25 mg/kg, mean±SD.
Series [3] concerns Male SD (Sprague-Dawley) rats. As to the kind of experiment: Galactose elimination capacity (GEC) residual liver function test in the rat INH study. Type of series: in vivo. The settings on record: i.p. once daily for 21 days, galactose 0.5 g/kg i.v., mean±SD, control 4.9±0.8. The method, then: (§1) Animals were randomized into one of five groups, each involving three treatments. The first treatment involved either a BNPP injection of 25 mg/kg or a BNPP vehicle (VEH1) injection (saline). […] The second treatment involved injections of either 100 mg/kg DSF or DSF vehicle (VEH2, corn oil). DSF was dissolved in corn oil and i.p. injected at a volume of […]. The third treatment involved injections of INH (25 mg/kg) or INH vehicle (VEH3, saline). INH was dissolved in saline (0.9% NaCl), and i.p. injected at a volume of […]. The first treatment (BNPP or VEH1) was administered 30 minutes before the third treatment (INH or VEH3), and the second treatment (DSF or VEH2) was administered 15 minutes before the third treatment (INH or VEH3).
• (1) Normal control group (NC, n=12): continuously injections of VEH1, VEH2 and VEH3 intraperitoneally once every day for 21 days; • (2) INH group (INH, n=7): continuously injections of INH, VEH1 and VEH2 intraperitoneally once every day for 21 days; • (3) BNPP-INH group (BNPP-INH, n=7): continuously injections of BNPP, INH and VEH2 intraperitoneally once every day for 21 days; • (4) DSF-INH group (DSF-INH, n=7): continuously injections of DSF, INH and VEH1 intraperitoneally once every day for 21 days; • (5) BNPP-DSF-INH group (BNPP-DSF-INH, n=7): continuously injections of BNPP DSH and INH intraperitoneally once every day for 21 days; […]

The subject of series [4] is Male SD (Sprague-Dawley) rats. Description: Liver histopathology by light and electron microscopy in the rat INH study. The class given is in vivo. The method, then:
as §1
• (1) Normal control group (NC, n=12): continuously injections of VEH1, VEH2 and VEH3 intraperitoneally once every day for 21 days; • (2) INH group (INH, n=7): continuously injections of INH, VEH1 and VEH2 intraperitoneally once every day for 21 days; • (3) BNPP-INH group (BNPP-INH, n=7): continuously injections of BNPP, INH and VEH2 intraperitoneally once every day for 21 days; • (4) DSF-INH group (DSF-INH, n=7): continuously injections of DSF, INH and VEH1 intraperitoneally once every day for 21 days; • (5) BNPP-DSF-INH group (BNPP-DSF-INH, n=7): continuously injections of BNPP DSH and INH intraperitoneally once every day for 21 days;
After the rats were sacrificed, the livers were subjected to histology analysis.

Series [5] deals with human liver microsomal cytochrome P450 2E1 (CYP2E1) (Homo sapiens, UniProt P05181). The following applies: human, 30 min, pH 7.4.
Chain of human liver microsomal cytochrome P450 2E1 (CYP2E1) (P05181 whole entry): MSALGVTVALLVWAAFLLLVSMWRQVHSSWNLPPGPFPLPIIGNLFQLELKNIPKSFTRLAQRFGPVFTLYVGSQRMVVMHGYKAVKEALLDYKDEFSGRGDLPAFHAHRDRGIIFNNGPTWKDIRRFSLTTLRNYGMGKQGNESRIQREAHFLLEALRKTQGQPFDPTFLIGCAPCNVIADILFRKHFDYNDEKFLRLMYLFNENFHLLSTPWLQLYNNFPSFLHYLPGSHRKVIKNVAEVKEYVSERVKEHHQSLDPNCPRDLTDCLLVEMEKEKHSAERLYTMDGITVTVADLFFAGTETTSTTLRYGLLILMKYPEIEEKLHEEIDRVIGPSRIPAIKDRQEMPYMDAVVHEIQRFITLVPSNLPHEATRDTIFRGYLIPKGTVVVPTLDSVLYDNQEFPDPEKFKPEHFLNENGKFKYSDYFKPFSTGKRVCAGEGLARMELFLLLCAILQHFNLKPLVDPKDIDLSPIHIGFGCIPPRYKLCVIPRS
Series [6] concerns the target T1, CYP2E1 (Homo sapiens, UniProt P05181). Description: in vitro. The settings on record: pH 7.4, Inhibition of CYP 2E1 (%).
The target of series [7] is cDNA expressed human cytochrome P450 2E1 (CYP2E1) (Homo sapiens, UniProt P05181). The following applies: 40 min, pH 7.4.
Chain of cDNA expressed human cytochrome P450 2E1 (CYP2E1) (P05181 whole entry): as above
The target in series [8] is T1, CYP2E1. As to the kind of experiment: Chlorzoxazone hydroxylation inhibition (6-OH-CZX by LC/MS/MS). The settings on record: human, microsomes, pH 7.4.

This is an account of results in US8304394B2, “Low side effect pharmaceutical composition containing isoniazid” (priority 2008, dated 2012).

Each structure is given as a SMILES string. Where two headings read alike, the source gives them in different places.

T1 sequence (P05181 whole entry): as above

On to `O=[N+]([O-])c1ccc(OP(=O)(O)Oc2ccc([N+](=O)[O-])cc2)cc1` [BNPP, bis-p-nitrophenyl phosphate], for which, in series [1], the “effect on isoniazid-induced hepatotoxicity” value is given as “can prevent isoniazid-induced hepatotoxicity”.
Turning to `NNC(=O)c1ccncc1` [INH, isoniazid], in series [2] (control 44±6), the “peak plasma ALT activity” value was 52±3 IU/L. For the same compound, the “peak plasma AST activity” value in series [2] (control 116±11) is recorded as 129±10 IU/L. The same compound returned a GEC value in series [3] of 3.4±0.6 mg/min·kg. In series [4] (daily i.p. injections for three weeks), the “hepatic necrosis (EM results)” value was “no hepatic necrosis was observed”. In addition, in series [4] (daily i.p. injections for three weeks, versus control group), the “liver injury (histopathology)” value is reported as “hepatocellular damage”. In series [4] (electron microscopy 9,000×), the “hepatocyte rough endoplasmic reticulum (rER) versus control” value is on record as “increased significantly”.
Turning to `CCN(CC)C(=S)S` [DDTC, Diethyldithiocarbamic acid], the 6-OH-CZX concentration in series [5] (50 μM) is reported as 1644.5 pmol; in series [5] (100 μM), 431.2 pmol. In addition, in series [6] (DDTC 0.091 μM), the inhibition at 40 min, 0.091 μM is 8.71%. The compound further displayed an inhibition at 40 min, 2.47 μM in series [6] (DDTC 2.47 μM) of 75.1%. In series [6] (DDTC 7.4 μM), this compound displayed an inhibition at 40 min, 7.4 μM of 90.5%. For the same compound, in series [6] (DDTC 22.2 μM), the inhibition at 40 min, 22.2 μM was found to be 93.2%. The HFC synthesis in series [7] (0.03 μM) was 256.00 pmol; in series [7] (0.091 μM), 202.00 pmol; in series [7] (2.47 μM) it was 55.18 pmol; in series [7] (7.4 μM) it was 21.08 pmol; in series [7] (22.2 μM) it was 15.10 pmol. This compound showed an inhibition at 30 min, 50 μM in series [8] of 48.7%. In series [8], this compound had an inhibition at 30 min, 100 μM of 87.6%.

A word on the inhibition: it is the drop in the measured response relative to a control, in per cent. A low value points to a weak effect.
